Values quoted from earlier work in patent US4496540A, “Therapeutic compounds” (Biomeasure, Inc., priority 1982, dated 1985).

Test system: enkephalinase

In the case of `O=C(O)CNC(=O)C(CS)Cc1ccccc1` (racemic) [Thiorphan, (DL-3-mercapto-2-benzylpropanoyl) glycine], the “protection of the enkephalins from the action of enkephalinase in vitro” value (in vitro, Roques et al. (1980)) is given as “protects the enkephalins from the action of enkephalinase in vitro in nanomolar concentration” and the inhibition of enkephalinase (known inhibitors, Llorens et al. (1981)) is given as “inhibited”.
